Read-outs that look alike come from different tables or passages of the source.
What was measured:
[1] = cited from earlier work
[2] = cited from earlier work; remark: listed apart in the source
[3] = ×5 in mice; cited from earlier work
[4] = test system: neuroblastoma IMR-32 cells; experiment: CellTiter 96 tumor cell proliferation assay; assay type: cell-based; settings: conjugate compared to non-conjugated methotrexate
Experimental: A CellTiter 96 cell proliferation kit was used according to the described protocols (Promega Corporation, Madison, Wis.)). Culture medium (50 μl) containing various concentrations of different peptides was added respectively in each well of the 96-well kit plates followed by 50 μl of a suspension containing 5,000 cultured IMR-32 tumor cells. The plate was incubated at 37° C. for different times up to and including 7 days in a humidified, 5% CO2 atmosphere. Kit dye solution (15 μl ) was added to each well and the plate incubated the plates at 37° C. for 4 hours in a humidified, 5% CO2 atmosphere. After 4 hours, 100 μl of the solubilization/stop solution were added to each well and incubation was continued at 37° C. for 1 hour or more until complete solubilization of the formazan crystals occurred. Absorbencies of individual well solutions were then measured at 570 nm wavelength using a 96 well plate reader.

[5] = molecular target: GH release from primary cultures of rat pituitary cells (somatostatin subtype 2 rat receptor related system) (Rattus norvegicus, UniProt P30680); experiment: Inhibition of GH release from primary cultures of rat pituitary cells; assay type: cell-based; settings: GH stimulated with 1 nM GRH(1-29)NH2, 3 h
Sequence of GH release from primary cultures of rat pituitary cells (somatostatin subtype 2 rat receptor related system) (P30680 whole entry): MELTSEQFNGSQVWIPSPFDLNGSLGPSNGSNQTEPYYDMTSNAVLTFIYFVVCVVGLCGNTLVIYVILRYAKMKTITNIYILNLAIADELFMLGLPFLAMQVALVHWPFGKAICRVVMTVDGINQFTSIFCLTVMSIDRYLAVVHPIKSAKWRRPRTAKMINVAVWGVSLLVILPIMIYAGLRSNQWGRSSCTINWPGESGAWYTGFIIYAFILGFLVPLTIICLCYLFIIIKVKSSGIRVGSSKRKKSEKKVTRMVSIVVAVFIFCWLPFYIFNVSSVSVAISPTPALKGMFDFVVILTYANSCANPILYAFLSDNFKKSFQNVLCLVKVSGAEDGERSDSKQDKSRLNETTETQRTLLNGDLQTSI
Experimental: This is a primary system for evaluating SRIF analog potency and can be considered a somatostatin subtype 2 rat receptor related system which historically also correlates well with human subtype 2 binding.
Anterior pituitaries from adult male rats weighing 200-250 g and housed under controlled conditions (lights on from 0500-1900 h), are dispersed using aseptic techniques by a trypsin/DNase method. The dispersed cells are diluted with sterile-filtered Dulbecco's modified Eagle medium (MEM) (Gibco Laboratories, Grand Island, N.Y. (GIBCO)), which is supplemented with 2.5% fetal calf serum (GIBCO), 3% horse serum (GIBCO), 10% fresh rat serum (stored on ice for no longer than 1 h) from the pituitary donors, 1% MEM nonessential amino acids (GIBCO), gentamycin (10 ng/ml; Sigma), and nystatin (10,000 U/ml; GIBCO). The cells are counted with a hemacytometer (approximately 2,000,000 cells per pituitary) and randomly plated at a density of 200,000 cells per well (Co-star cluster 24; Rochester Scientific Co., Rochester, N.Y.). […]
In preparation for a hormone challenge, the cells are washed 3× with medium 199 (GIBCO) to remove old medium and floating cells. […] GH in plasma and media is measured by a standard double antibody RIA using components supplied by the NIDDK and the National Hormone and Pituitary Program.

[6] = rat, in vivo, ip
Experimental: The solution was divided into three equal parts not exceeding 2 mL and injected intraperitoneally into each rat. Urine and feces were collected on an adsorbent pad overnight. At 24 hours, the rats were killed, dissected and each of the below organs were weighed and counted in a dose calibrator.

[7] = 1×iv, mice; cited from earlier work

## CCc1c2c(nc3ccc(OC(=O)N4CCC(N5CCCCC5)CC4)cc13)-c1cc3c(c(=O)n1C2)COC(=O)[C@]3(O)CC [irinotecan]
[1]; 1×/wk depending on patient response
  MTD: 50-150 mg/m^2

## O=c1[nH]c(=O)n([C@H]2C[C@H](O)[C@@H](CO)O2)cc1F [FUDR]
[2]; in human i.a.
  MTD: 0.6 mg/kg/day
[3]
  MTD: 100 mg/kg

## Nc1ccn([C@@H]2O[C@H](CO)[C@@H](O)C2(F)F)c(=O)n1 [gemcitabine]
[1]; in vivo
  MTD: 1000 mg/m^2

## CC[C@]1(O)C[C@H]2CN(CCc3c([nH]c4ccccc34)[C@@](C(=O)OC)(c3cc4c(cc3OC)N(C=O)[C@H]3[C@@](O)(C(=O)OC)[C@H](OC(C)=O)[C@]5(CC)C=CCN6CC[C@]43[C@@H]65)C2)C1 [vincristine]
[1]; in vivo
  MTD: 1.4 mg/m^2

## Nc1ccn([C@@H]2O[C@H](CO)[C@@H](O)[C@@H]2O)c(=O)n1 [cytarabine]
[1]; in vivo
  MTD: 100 mg/m^2/day

## CCC1=C[C@@H]2CN(C1)Cc1c([nH]c3ccccc13)[C@@](C(=O)OC)(c1cc3c(cc1OC)N(C)[C@H]1[C@@](O)(C(=O)OC)[C@H](OC(C)=O)[C@]4(CC)C=CCN5CC[C@]31[C@@H]54)C2 [vinorelbine]
[1]; in vivo
  MTD: 30 mg/m^2/wk

## O=C1c2c(O)ccc(O)c2C(=O)c2c(NCCNCCO)ccc(NCCNCCO)c21 [mitoxantrone]
[1]; in vivo
  MTD: 12-14 mg/m^2

## N.N.[Cl][Pt][Cl] [Cis-Pt]
[2]; in man
  MTD: 100 mg/m^2

## CN(Cc1cnc2nc(N)nc(N)c2n1)c1ccc(C(=O)N[C@@H](CCC(=O)O)C(=O)O)cc1 [methotrexate]
[4]
  Inhibitory effects on proliferation of IMR-32 cells (potency comparison, FIG. 1): equivalent potencies
[1]; i.v. w/o leuco
  MTD: < 500 mg/m^2
[1]; i.v.+leuco.
  MTD: 15 gm/m^2

## N.N.O=C([O-])C1(C(=O)[O-])CCC1.[Pt+2] [carbo-Pt]
[2]; in man
  MTD: 360 mg/m^2

## NC(=O)NO [Hydroxyurea]
[2]; in man
  MTD: 35 mg/kg/day

## Nc1nc(F)nc2c1ncn2[C@@H]1O[C@H](COP(=O)(O)O)[C@@H](O)[C@@H]1O [Fludarabine-P04]
[1]; ×5 days
  MTD: 25 mg/m^2/day

## NC(=O)c1ncn2c(=O)n(CCCl)nnc12 [mitozolomide]
[1]; in vivo
  MTD: > 400 mg/m^2

## D-Ser-D-Ser-D-Ser-D-Ser-D-Ser-L-Lys-D-Tyr-D-Ser-cyclo[L-Cys-L-Phe-D-Trp-L-Lys-L-Thr-L-Cys]-L-Thr-NH2 [JF-08-53]
[5]
  IC50: 0.086 nM
[6]
  Elimination of labeled peptide in urine and feces (FIG. 2): rapid and high efficiency elimination

## bleomycin
[1]; in vivo
  MTD: 20 mg/m^2

## O=c1[nH]cc(F)c(=O)[nH]1 [Peptide 5-FU, 5-FU]
[1]; ×5 days
  MTD: 500 mg/m^2/day

## COc1cc([C@@H]2c3cc4c(cc3[C@@H](O[C@@H]3O[C@@H]5CO[C@@H](C)O[C@H]5[C@H](O)[C@H]3O)[C@H]3COC(=O)[C@H]23)OCO4)cc(OC)c1O [etoposide]
[2]; in man
  MTD: 100 mg/m^2

## CC(=O)O[C@@]12CO[C@@H]1C[C@H](O)[C@@]1(C)C(=O)[C@H](O)C3=C(C)[C@@H](OC(=O)[C@H](O)[C@@H](NC(=O)OC(C)(C)C)c4ccccc4)C[C@@](O)([C@@H](OC(=O)c4ccccc4)[C@H]21)C3(C)C [Docetaxel]
[1]; in vivo
  MTD: 60-100 mg/m^2

## CC[C@@]1(O)C(=O)OCc2c1cc1n(c2=O)Cc2cc3c(CN(C)C)c(O)ccc3nc2-1 [topotecan]
[2]; in humans
  MTD: 1.5 mg/m^2/day
[7]
  LD10: 75 mg/m^2

## CCCCCOC(=O)Nc1nc(=O)n([C@@H]2O[C@H](C)[C@@H](O)[C@H]2O)cc1F [capecitabine]
[1]; orally
  MTD: 2.5 g/m^2
